Key:
[1] = in water, alcohol, and ether; cited from earlier work
Atrial Fibrillation = test: Randomized, double-blind placebo-controlled study in high-risk CABG patients; atrial fibrillation by 12-lead ECG; assay type: in vivo, human; settings: for Reduction of AF compared to placebo: from POD 4 to POD 90
From the text: A randomized, double-blind placebo-controlled, dose-ranging, parallel-arm multi-center study was undertaken, on high-risk patients undergoing CABG surgery with cardiopulmonary bypass. Patients were identified as “high risk” if they had two or more of the following risk factors: • Age greater than 65 years • Current smoker • History of diabetes mellitus requiring treatment other than diet • Evidence of left ventricular dysfunction or congestive heart failure • History of a previous non-disabling stroke, transient ischemic attack, or carotid endarterectomy • Urgent CABG intervention defined as the need to stay in the hospital (although the patient may be operated on within a normal scheduling routine). • History of myocardial infarction that occurred more than 48 hours but less than 6 weeks prior to CABG surgery • Prior peripheral artery surgery or angioplasty • Moderate renal dysfunction defined as […] >133 μmol/L (1.5 mg/dl), but <250 μmol/L (2.8 mg/dl) • Presence of at least one asymptomatic carotid artery stenosis (>50% ) either in one or two carotid arteries. Approximately 900 high risk pre-CABG patients in 42 different treatment centers in North America were screened and randomized to three groups of approximately 300 patients each, prior to their bypass surgery, as follows. Patients were either placed in a control group (placebo), treated with 250 mg/day of pyridoxal-5′-phosphate, (250 mg/day), or treated with 750 mg day of pyridoxal-5′-phosphate (750 mg/day). The first dose of study medication was administered at 3-10 hours prior to CABG surgery. In the event of surgery delay or rescheduling, a second pre-operative dose of pyridoxal-5′-phosphate was administered so that all patients received study medication 3-10 hours before surgery. Treatment continued for 30 days after surgery (post operative day (POD) 30). Patients received follow-up evaluations up to and including postoperative day (POD) 4, on POD 30 and on POD 90. 12-lead ECG were taken at baseline (Pre-Op), POD 2, POD 4, POD 30 and POD 90 with patients on placebo, 250 mg/day pyridoxal-5′-phosphate (P5P), and 750 mg/day pyridoxal-5′-phosphate. The data from baseline, POD 4 and POD 90 were analyzed.

[2] = tested on: ATP induced calcium ion influx into cells (P2X purinoceptors); settings: a recent evaluation; suggested due to inhibition of P2X purinoceptors; cited from earlier work

Cc1ncc(COP(=O)(O)O)c(C=O)c1O [pyridoxal-5′-phosphate, 3-hydroxy-2-methyl-5-[(phosphonooxy)methyl]-4-pyridine-carboxaldehyde]
Solubility [1]: essentially insoluble
Reduction of AF compared to placebo (Atrial Fibrillation; 250 mg dose, p=0.0084): 51.75%
Reduction of AF compared to placebo (Atrial Fibrillation; 750 mg dose, p=0.013): 49.08%
Number of patients who had AF at POD 4 (Atrial Fibrillation; 250 mg/day P5P (n = 301)): 56
Percent of patients who had AF at POD 4 (Atrial Fibrillation; 250 mg/day P5P (n = 301)): 18.60%
Number of patients who had AF at POD 4 (Atrial Fibrillation; 750 mg/day P5P (n = 302)): 63
Percent of patients who had AF at POD 4 (Atrial Fibrillation; 750 mg/day P5P (n = 302)): 20.86%
Number of patient who had AF at POD 90 (Atrial Fibrillation; 250 mg/day P5P (n = 301)): 17
Percent of patient who had AF at POD 90 (Atrial Fibrillation; 250 mg/day P5P (n = 301)): 5.65%
Number of patient who had AF at POD 90 (Atrial Fibrillation; 750 mg/day P5P (n = 302)): 18
Percent of patient who had AF at POD 90 (Atrial Fibrillation; 750 mg/day P5P (n = 302)): 5.96%
Effect on ATP induced calcium ion influx into cells [2]: inhibits
